For one experiment, the system named is HEK293. The experiment is described as follows: Compound was tested for NF-kB inhibitory activity in HEK 293 cells. Type of experiment: functional, Homo sapiens.
In another experiment the test system is HeLa. The experiment is described as follows: Compound was tested for NF-kB inhibitory activity in Hela M cells. Format: functional, Homo sapiens.

The record followed here is ChEMBL document CHEMBL1135852, “Inhibitors of NF-kappaB signaling: design and synthesis of a biotinylated isopanepoxydone affinity reagent” (2002).

The structures appear in SMILES notation.

`CC(=O)O[C@H]1C(/C=C/C(C)(C)O)=CC(=O)[C@@H]2O[C@@H]21`: the Inhibitory activity entry in the experiment with HEK293 and with HeLa was “<=0” throughout. On to `CC(C)(O)/C=C/C1=CC(=O)[C@@H]2O[C@@H]2[C@H]1O`, for which the Inhibitory activity is given as 4 with HEK293 and “<=0” with HeLa. The matching figures for `CC(=O)O[C@H]1C(/C=C/C(C)(C)O)=C[C@@H](O)[C@@H]2O[C@@H]21`: 49 and “>=100”. The matching figures for `CC(C)=C[C@@H](O)C1=C[C@@H](O)[C@@H]2O[C@@H]2C1=O`: “<=0” and “<=0”.

For `CC(=O)O[C@@H]1C(/C=C/C(C)(C)O)=CC(=O)[C@@H]2O[C@H]12`, the Inhibitory activity entry in the experiment with HEK293 and in the experiment on HeLa was “<=0” each time.

`CC(C)(O)/C=C/C1=C[C@@H](O)[C@@H]2O[C@@H]2C1=O`: the Inhibitory activity in the experiment with HEK293 was 63; with HeLa, “>=100”.

Consider `CC(C)(O)/C=C/C1=CC(=O)[C@@H]2O[C@@H]2[C@@H]1O`, for which the Inhibitory activity result with HeLa is recorded as “>=100”. Take `CC(C)(O)/C=C/C1=CC(=O)[C@@H]2O[C@@H]2C1=O`: the Inhibitory activity result with HEK293 and in the experiment on HeLa was “<=0” each time.

Consider `CC(=O)O[C@H]1C(/C=C/C(C)(O)CCCCCCCCN2C(=O)c3ccccc3C2=O)=CC(=O)[C@@H]2O[C@@H]21` (stereo partly drawn), for which the Inhibitory activity entry in the experiment on HEK293 and in the experiment on HeLa was “<=0” each time. For the molecule `CC(C)=CC(=O)C1=C[C@@H](O)[C@@H]2O[C@@H]2[C@@H]1O`, the results for the Inhibitory activity with HEK293 and in the experiment on HeLa were 65 and 85, respectively.

On to `CC(C)=C[C@H](O)C1=C[C@@H](O)[C@@H]2O[C@@H]2C1=O` [PANEPOXYDONE], for which the Inhibitory activity entry in the experiment with HEK293 and in the experiment on HeLa was “<=0” in each case. `CC(=O)O[C@@H]1C(/C=C/C(C)(C)O)=C[C@@H](O)[C@@H]2O[C@@H]21`: the Inhibitory activity in the experiment with HEK293 is on record as 58; with HeLa it was “>=100”.
